Measured values as given in patent US5795861A, “Methods for regulating gastrointestinal motility” (Amylin Pharmaceuticals Inc., priority 1995, dated 1998).

Key:
[1] = solubility and stability compared to human amylin; type: physicochemical
[2] = plasma AC-0137 levels after IV bolus or infusion (clinical study); type: in vivo, human; conditions: after IV bolus injection
Source text: Subjects in each dose group underwent a two period crossover to examine intravenous (IV) bolus versus IV infusion of drug. Each period consisted of a three-day confinement to the study unit. On each occasion, the initial day of confinement was allowed for acclimatization to the study unit. The second and third days constituted an imbedded crossover of placebo versus active medication. […] An imbedded cross-over design for the administration of drug and placebo on Days 2 and 3 of this admission was employed in a manner similar to that used during the first admission. The six subjects assigned to the placebo group received placebo on each of the study days.
On study days, intravenous catheters were inserted at least 30 minutes prior to the start of the study. 15 minutes before dosing, the subjects took their usual insulin dose via subcutaneous injection. […] The infusion rate was designed to administer the assigned amount of drug over the two hour period. Thirty minutes later, the subjects ingested their normal breakfasts.

disappearance of drug from the plasma compartment [2]: apparent first-order kinetics
SMILES: CC[C@H](C)[C@H](NC(=O)[C@@H]1CCCN1C(=O)CNC(=O)[C@H](Cc1ccccc1)NC(=O)[C@H](CC(N)=O)NC(=O)[C@H](CC(N)=O)NC(=O)[C@H](CO)NC(=O)[C@H](CO)NC(=O)[C@H](Cc1c[nH]cn1)NC(=O)[C@@H](NC(=O)[C@H](CC(C)C)NC(=O)[C@H](Cc1ccccc1)NC(=O)[C@H](CC(N)=O)NC(=O)[C@H](C)NC(=O)[C@H](CC(C)C)NC(=O)[C@H](CCCNC(=N)N)NC(=O)[C@H](CCC(N)=O)NC(=O)[C@@H](NC(=O)[C@H](C)NC(=O)[C@@H]1CSSC[C@H](NC(=O)[C@@H](N)CCCCN)C(=O)N[C@@H](CC(N)=O)C(=O)N[C@@H]([C@@H](C)O)C(=O)N[C@@H](C)C(=O)N[C@@H]([C@@H](C)O)C(=O)N1)[C@@H](C)O)C(C)C)C(=O)N[C@@H](CC(C)C)C(=O)N1CCC[C@H]1C(=O)N1CCC[C@H]1C(=O)N[C@H](C(=O)N[C@@H](CC(N)=O)C(=O)N[C@H](C(=O)NCC(=O)N[C@@H](CO)C(=O)N[C@@H](CC(N)=O)C(=O)N[C@H](C(=O)N[C@@H](Cc1ccc(O)cc1)C(N)=O)[C@@H](C)O)C(C)C)[C@@H](C)O [AC-0137, ^25,28,29 Pro-h-amylin]
solubility and stability characteristics [1]: more desirable solubility and stability characteristics
